Test results as given in patent US12660819B2, “Herbicidal derivatives” (SYNGENTA CROP PROTECTION AG, priority 2020, dated 2026).

Legend:
Assay type in all cases: in vivo
[1] = tested on: Abutilon theophrasti (ABUTH); assay: Post-emergence Test (glasshouse, percentage damage to the plant); details: 1000 g/ha unless otherwise stated, evaluated after 13 days; for Post-emergence Test ABUTH, percentage damage to the plant (five-point scale): post-emergence spray; for ABUTH, percentage damage caused to the plant (five-point scale): post-emergence
Outline: (§1)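 After sowing in standard soil, pots were kept at 24/16 °C (day/night), 14 h light and 65% humidity. They were sprayed at 1000 g/ha unless otherwise stated, watered twice daily, and assessed for percentage damage at 13 days on a 1–5 scale.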

[2] = tested on: Amaranthus retoflexus (AMARE); assay: as above; details: 1000 g/ha unless otherwise stated, evaluated after 13 days; for Post-emergence Test AMARE, percentage damage to the plant (five-point scale): post-emergence spray; for AMARE, percentage damage caused to the plant (five-point scale): post-emergence
Outline: as §1

[3] = tested on: Echinochloa crus-galli (ECHCG); assay: as above; details: post-emergence spray, 1000 g/ha unless otherwise stated, evaluated after 13 days
Outline: as §1

[4] = tested on: Ipomoea hederacea (IPOHE); assay: as above; details: 1000 g/ha unless otherwise stated, evaluated after 13 days; for Post-emergence Test IPOHE, percentage damage to the plant (five-point scale): post-emergence spray; for IPOHE, percentage damage caused to the plant (five-point scale): post-emergence
Outline: (§2)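 Damage was rated 13 days after treatment and expressed on a five-point scale: 5=81-100%, 4=61-80%, 3=41-60%, 2=21-40%, 1=0-20%. Spray was applied at 1000 g/ha unless otherwise stated, from acetone/water (50:50) with 0.5% Tween 20, to sown pots.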

Setaria faberi (SETFA) [5] = assay: as above; details: 1000 g/ha unless otherwise stated, evaluated after 13 days; for Post-emergence Test SETFA, percentage damage to the plant (five-point scale): post-emergence spray; for SETFA, percentage damage caused to the plant (five-point scale): post-emergence
Outline: as §2

Zea mays (ZEAMX) [6] = assay: as above; details: 1000 g/ha unless otherwise stated, evaluated after 13 days; for Post-emergence Test ZEAMX, percentage damage to the plant (five-point scale): post-emergence spray; for ZEAMX, percentage damage caused to the plant (five-point scale): post-emergence
Outline: as §2

[7] = tested on: Amaranthus retoflexus (AMARE); assay: Pre-emergence Test (glasshouse, percentage damage to the plant); details: 1000 g/ha unless otherwise stated; for percentage damage to the plant, AMARE: five-point scale; for percentage damage to the plant, AMARE (five-point scale): Amaranthus retoflexus
Setaria faberi (SETFA) [8] = assay: as above; details: 1000 g/ha unless otherwise stated; for percentage damage to the plant, SETFA: five-point scale; for percentage damage to the plant, SETFA (five-point scale): Setaria faberi
[9] = tested on: Echinochloa crus-galli (ECHCG); assay: as above; details: 1000 g/ha unless otherwise stated; for percentage damage to the plant, ECHCG: five-point scale; for percentage damage to the plant, ECHCG (five-point scale): Echinochloa crus-galli
[10] = tested on: Ipomoea hederacea (IPOHE); assay: as above; details: 1000 g/ha unless otherwise stated; for percentage damage to the plant, IPOHE: five-point scale; for percentage damage to the plant, IPOHE (five-point scale): Ipomoea hederacea
[11] = tested on: Abutilon theophrasti (ABUTH); assay: as above; details: 1000 g/ha unless otherwise stated; for percentage damage to the plant, ABUTH: five-point scale; for percentage damage to the plant, ABUTH (five-point scale): Abutilon theophrasti
Zea mays (ZEAMX) [12] = assay: as above; details: 1000 g/ha unless otherwise stated; for percentage damage to the plant, ZEAMX: five-point scale; for percentage damage to the plant, ZEAMX (five-point scale): Zea mays

| SMILES | Post-emergence Test ABUTH, percentage damage to the plant (five-point scale) [1] | Post-emergence Test AMARE, percentage damage to the plant (five-point scale) [2] | Post-emergence Test IPOHE, percentage damage to the plant (five-point scale) [4] | Post-emergence Test SETFA, percentage damage to the plant (five-point scale) (Setaria faberi (SETFA) [5]) | Post-emergence Test ZEAMX, percentage damage to the plant (five-point scale) (Zea mays (ZEAMX) [6]) | percentage damage to the plant, AMARE [7] | percentage damage to the plant, SETFA (Setaria faberi (SETFA) [8]) | percentage damage to the plant, ECHCG [9] | percentage damage to the plant, IPOHE [10] | percentage damage to the plant, ZEAMX (Zea mays (ZEAMX) [12]) | ABUTH, percentage damage caused to the plant (five-point scale) [1] | AMARE, percentage damage caused to the plant (five-point scale) [2] | IPOHE, percentage damage caused to the plant (five-point scale) [4] | SETFA, percentage damage caused to the plant (five-point scale) (Setaria faberi (SETFA) [5]) | ZEAMX, percentage damage caused to the plant (five-point scale) (Zea mays (ZEAMX) [6]) | percentage damage to the plant, AMARE (five-point scale) [7] | percentage damage to the plant, SETFA (five-point scale) (Setaria faberi (SETFA) [8]) | percentage damage to the plant, ECHCG (five-point scale) [9] | percentage damage to the plant, IPOHE (five-point scale) [10] | percentage damage to the plant, ABUTH (five-point scale) [11] | also measured |
| --- | --- | --- | --- | --- | --- | --- | --- | --- | --- | --- | --- | --- | --- | --- | --- | --- | --- | --- | --- | --- | --- |
| CCn1c(C)c(-c2ccnc(OC)c2)c(=O)c(C(=O)O)c1-c1ccc(Cl)c(Cl)c1 [Compound 53, 2-(3,4-dichlorophenyl)-1-ethyl-5-(2-methoxy-4-pyridyl)-6-methyl-4-oxo-pyridine-3-carboxylic acid] | 4 (4=61-80%) | 3 (3=41-60%) | 2 (2=21-40%) | 4 (4=61-80%) | 2 (2=21-40%) | 1 (1=0-20%) | 4 (4=61-80%) | 3 (3=41-60%) | 3 (3=41-60%) | 1 (1=0-20%) | – | – | – | – | – | – | – | – | – | – | Post-emergence Test ECHCG, percentage damage to the plant (five-point scale) [3]: 3 (3=41-60%); percentage damage to the plant, ABUTH [11]: 3 (3=41-60%) |
| CCn1c(C)c(-c2ccc(Cl)cc2)c(=O)c(C(=O)O)c1-c1ccc(Br)cc1F [Compound 133, 2-(4-bromo-2-fluoro-phenyl)-5-(4-chlorophenyl)-1-ethyl-6-methyl-4-oxo-pyridine-3-carboxylic acid] | 2 (2=21-40%) | 4 (4=61-80%) | 3 (3=41-60%) | 1 (1=0-20%) | 1 (1=0-20%) | 2 (2=21-40%) | 5 (5=81-100%) | 4 (4=61-80%) | 2 (2=21-40%) | 2 (2=21-40%) | – | – | – | – | – | – | – | – | – | – | percentage damage to the plant, ABUTH [11]: 3 (3=41-60%) |
| CCn1c(C)c(-c2ccc(F)cc2OC)c(=O)c(C(=O)OC)c1-c1ccc(Cl)c(Cl)c1 [Compound 164, methyl 2-(3,4-dichlorophenyl)-1-ethyl-5-(4-fluoro-2-methoxy-phenyl)-6-methyl-4-oxo-pyridine-3-carboxylate] | 1 (1=0-20%) | 1 (1=0-20%) | 1 (1=0-20%) | 1 (1=0-20%) | 1 (1=0-20%) | 0 | 0 | 0 | 0 | 0 | – | – | – | – | – | – | – | – | – | – | Post-emergence Test ECHCG, percentage damage to the plant (five-point scale) [3]: 0 |
| CCn1c(C)c(-c2ccc(F)cc2F)c(=O)c(C(=O)O)c1-c1ccc(Cl)cc1 [Compound 192, 2-(4-chlorophenyl)-5-(2,4-difluorophenyl)-1-ethyl-6-methyl-4-oxo-pyridine-3-carboxylic acid] | 4 (4=61-80%) | 2 (2=21-40%) | 2 (2=21-40%) | 4 (4=61-80%) | 2 (2=21-40%) | 1 (1=0-20%) | 2 (2=21-40%) | 2 (2=21-40%) | 1 (1=0-20%) | 0 | – | – | – | – | – | – | – | – | – | – | percentage damage to the plant, ABUTH [11]: 2 (2=21-40%) |
| CCn1c(C)c(-c2ccc(Cl)c(F)c2)c(=O)c(C(=O)O)c1-c1ccc(Cl)cc1 [Compound 201, 5-(4-chloro-3-fluoro-phenyl)-2-(4-chlorophenyl)-1-ethyl-6-methyl-4-oxo-pyridine-3-carboxylic acid] | – | – | – | – | – | – | – | – | – | – | 4 (4=61-80%) | 2 (2=21-40%) | 1 (1=0-20%) | 3 (3=41-60%) | 2 (2=21-40%) | 1 (1=0-20%) | 3 (3=41-60%) | 3 (3=41-60%) | 0 | 2 (2=21-40%) | percentage damage to the plant, ZEAMX (five-point scale) (Zea mays (ZEAMX) [12]): 0 |
| CCn1c(CCOC)c(-c2ccc(Cl)cc2)c(=O)c(C(=O)OC)c1-c1ccc(Cl)c(Cl)c1 [Compound 202, methyl 5-(4-chlorophenyl)-2-(3,4-dichlorophenyl)-1-ethyl-6-(2-methoxyethyl)-4-oxo-pyridine-3-carboxylate] | – | – | – | – | – | – | – | – | – | – | 0 | 0 | 1 (1=0-20%) | 0 | 1 (1=0-20%) | 0 | 0 | 0 | 0 | 0 | percentage damage to the plant, ZEAMX (five-point scale) (Zea mays (ZEAMX) [12]): 0 |
| CCn1c(-c2ccc(Cl)c(Cl)c2)c(C(=O)O)c(=O)c(-c2ccc(Cl)cc2)c1C(F)F [Compound 204, 5-(4-chlorophenyl)-2-(3,4-dichlorophenyl)-6-(difluoromethyl)-1-ethyl-4-oxo-pyridine-3-carboxylic acid] | – | – | – | – | – | – | – | – | – | – | 5 (5=81-100%) | 5 (5=81-100%) | 2 (2=21-40%) | 3 (3=41-60%) | 1 (1=0-20%) | 5 (5=81-100%) | 0 | 0 | 0 | 2 (2=21-40%) | percentage damage to the plant, ZEAMX (five-point scale) (Zea mays (ZEAMX) [12]): 0 |
| CCn1c(-c2ccc(Cl)c(Cl)c2)c(C(=O)OC)c(=O)c(-c2ccc(Cl)cc2)c1C(F)F [Compound 205, methyl 5-(4-chlorophenyl)-2-(3,4-dichlorophenyl)-6-(difluoromethyl)-1-ethyl-4-oxo-pyridine-3-carboxylate] | – | – | – | – | – | – | – | – | – | – | 0 | 1 (1=0-20%) | 1 (1=0-20%) | 0 | 0 | 0 | 0 | 0 | 0 | 0 | percentage damage to the plant, ZEAMX (five-point scale) (Zea mays (ZEAMX) [12]): 0 |
